In patent US5981519A, “Vinyl-pyrrolidinone cephalosporins” (Hoffman-La Roche Inc., priority 1996, dated 1999):
In brackets after ≈: the same amount, converted by molar mass.

Columns and labels:
MRSA = assay: In vitro activity, MIC90 against MRSA (n = 38), agar dilution; type: cell-based; conditions: Staphylococcus aureus, MuellerHinton agar, inoculum: 10^5 CFU/spot
Protocol: (§1) Representative compounds (A and B, above) of the present invention were tested. In vitro activity was determined by minimum inhibitory concentration by the agar dilution method in Mueller Hinton agar, inoculum=10^4 CFU/spot.
*Agar dilution method on MuellerHinton agar, inoculum: 10^5 CFU/spot

S. aureus 743 (MRSA) = assay: In vitro activity, minimum inhibitory concentration, agar dilution, S. aureus 743 (MRSA); type: cell-based; conditions: Staphylococcus aureus, Mueller Hinton agar, inoculum=10^4 CFU/spot
Protocol: as §1

S.aureus 6538 (MSSA) = assay: In vitro activity, minimum inhibitory concentration, agar dilution, S. aureus 6538 (MSSA); type: cell-based; conditions: Staphylococcus aureus, Mueller Hinton agar, inoculum=10^4 CFU/spot
Protocol: as §1

S. aureus 270 A (MRSA) = assay: In vivo efficacy, sc abscess model in mice infected with S. aureus 270 A (MRSA); conditions: 10 mg/kg ip; for Median log CFU: 3 mice, untreated 6.92
Protocol: In vivo efficacy was determined with a sc abscess model in mice, infected with S. aureus 270 A (MRSA). The dose (ip) was 10 mg/kg. The median log of colony forming units (CFU) was determined.

P. aeruginosa ATCC27853 = assay: In vitro activity, minimum inhibitory concentration, agar dilution, P. aeruginosa ATCC27853; type: cell-based; conditions: Pseudomonas aeruginosa, Mueller Hinton agar, inoculum=10^4 CFU/spot
Protocol: as §1

S. aureus 270A (MRSA) = assay: In vitro activity, minimum inhibitory concentration, agar dilution, S. aureus 270A (MRSA); type: cell-based; conditions: Staphylococcus aureus, Mueller Hinton agar, inoculum=10^4 CFU/spot
Protocol: as §1

Compound | MIC90 (MRSA) | MIC (S. aureus 743 (MRSA)) | MIC (S.aureus 6538 (MSSA)) | activity compared with vancomycin (S. aureus 270 A (MRSA)) | reduction in the number of CFUs as compared to the untreated control (S. aureus 270 A (MRSA)) | Median log CFU (S. aureus 270 A (MRSA)) | MIC (P. aeruginosa ATCC27853) | MIC (S. aureus 270A (MRSA))
Nc1nc(/C(=N/O)C(=O)N[C@@H]2C(=O)N3C(C(=O)O)=C(/C=C4\CCN([C@@H]5CCNC5)C4=O)CS[C@H]23)ns1 [A, (6R, 7R)-7-[(Z)-2-(5-Amino-[1,2,4]thiadiazol-3-yl)-2-hydroxyimino-acetylamino]-8-oxo-3-[(E)-(R)-2-oxo-[1,3']bipyrrolidinyl-3-ylidenemethyl]-5-thia-1-aza-bicyclo[4.2.0]oct-2-ene-2-carboxylic acid] | 4 µg/mL (≈ 7.48 µM) | 2 µg/mL (≈ 3.74 µM) | 0.5 µg/mL (≈ 0.935 µM) | more active than vancomycin | more than hundred-fold reduction | 4.72 log CFU | 2 µg/mL (≈ 3.74 µM) | 2 µg/mL (≈ 3.74 µM)
Nc1nc(/C(=N/O)C(=O)N[C@@H]2C(=O)N3C(C(=O)O)=C(/C=C4\CCN([C@H]5CCNC5)C4=O)CS[C@H]23)ns1 [B, (6R, 7R)-7-[(Z)-2-(5-Amino-[1,2,4]thiadiazol-3-yl)-2-hydroxyimino-acetylamino]-8-oxo-3-[(E)-(S)-2-oxo-[1,3']bipyrrolidinyl-3-ylidenemethyl]-5-thia-1-aza-bicyclo[4.2.0]oct-2-ene-2-carboxylic acid] | 4 µg/mL (≈ 7.48 µM) | 2 µg/mL (≈ 3.74 µM) | 0.25 µg/mL (≈ 0.468 µM) | – | – | – | 4 µg/mL (≈ 7.48 µM) | 4 µg/mL (≈ 7.48 µM)
CN[C@H](CC(C)C)C(=O)N[C@H]1C(=O)N[C@@H](CC(N)=O)C(=O)N[C@H]2C(=O)N[C@H]3C(=O)N[C@H](C(=O)N[C@H](C(=O)O)c4cc(O)cc(O)c4-c4cc3ccc4O)[C@H](O)c3ccc(c(Cl)c3)Oc3cc2cc(c3O[C@@H]2O[C@H](CO)[C@@H](O)[C@H](O)[C@H]2O[C@H]2C[C@](C)(N)[C@H](O)[C@H](C)O2)Oc2ccc(cc2Cl)[C@H]1O [Vancomycin, vancomycin, reference compound] | – | – | – | – | – | 5.28 log CFU | – | –
